Laboratory results reported in patent US20040152659A1, “Method for the treatment of parkinson's disease comprising administering an A1A2a receptor dual antagonist” (Fujisawa Pharmaceutical Co. Ltd., priority 1999, published 2004).

Columns and labels:
[1] = molecular target: T1, human recombinant A1 receptors (Homo sapiens, UniProt P30542); assay: Estimation of Adenosine A1-receptor antagonizing activity ([3H]-DPCPX binding, CHO cell membrane fractions)
T1 construct: expressed in transfected cells; host or cells: CHO cells
T1 sequence (P30542 1-326): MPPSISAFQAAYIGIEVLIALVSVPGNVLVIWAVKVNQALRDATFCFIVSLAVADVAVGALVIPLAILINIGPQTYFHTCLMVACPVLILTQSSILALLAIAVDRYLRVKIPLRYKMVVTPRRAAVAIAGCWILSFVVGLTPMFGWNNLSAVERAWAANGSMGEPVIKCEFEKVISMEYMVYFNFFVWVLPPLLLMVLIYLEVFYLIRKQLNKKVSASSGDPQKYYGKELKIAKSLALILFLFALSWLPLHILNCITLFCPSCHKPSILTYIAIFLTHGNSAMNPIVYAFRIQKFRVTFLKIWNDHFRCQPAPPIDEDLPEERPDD
From the text: (§1) The existence and intensity of “adenosine A1-receptor antagonizing activity” and/or “adenosine A2a-receptor antagonizing activity” can be ascertained and assessed typically by the following test method. The intensity of adenosine A1-receptor antagonizing action and of adenosine A2a-receptor antagonizing action as referred to in the appended claims also means the value found by the method described below.
(§2) “Estimation of Adenosine A1 and A2a-receptor antagonizing activity”
(§3) Membrane fractions prepared from the CHO cells which transfected stably with human recombinant A1 or A2a receptors were incubated for 1 hr at 25° C. with test compounds, ADA, 50 mM Tris buffer and [3H]-DPCPX (final 4 nM) or [3H]-CGS21680 (final 15 nM), respectively. Reaction mixtures were filtrated with 96-well harvestor to separate free ligands from bound fraction using GF/C filter. Radioactivity of the dried filter was counted, and specific binding of each labelled rigands was calculated.

Mice = assay: Test 1 Anticataleptic action (haloperidol-induced catalepsy); assay type: in vivo; conditions: 1 mg/kg oral, 30 min before haloperidol 0.32 mg/kg i.p., observed 30 min later, control 100
Description: Test 1 Anticataleptic Action
Mice were orally dosed with the test compound as a suspention in 0.5% of methyl cellulose and, 30 minutes later, intraperitoneally dosed with 0.32 mg/kg of haloperidol.

[2] = molecular target: T2, human recombinant A2a receptors (Homo sapiens, UniProt P29274); assay: Estimation of Adenosine A2a-receptor antagonizing activity ([3H]-CGS21680 binding, CHO cell membrane fractions); conditions: at a concentration of 1.0×10^−6 M; [3H]-CGS21680 15 nM; read-out: inhibition rate for Adenosine A2a-receptor
T2 construct: expressed in transfected cells; host or cells: CHO cells
T2 sequence (P29274 whole entry): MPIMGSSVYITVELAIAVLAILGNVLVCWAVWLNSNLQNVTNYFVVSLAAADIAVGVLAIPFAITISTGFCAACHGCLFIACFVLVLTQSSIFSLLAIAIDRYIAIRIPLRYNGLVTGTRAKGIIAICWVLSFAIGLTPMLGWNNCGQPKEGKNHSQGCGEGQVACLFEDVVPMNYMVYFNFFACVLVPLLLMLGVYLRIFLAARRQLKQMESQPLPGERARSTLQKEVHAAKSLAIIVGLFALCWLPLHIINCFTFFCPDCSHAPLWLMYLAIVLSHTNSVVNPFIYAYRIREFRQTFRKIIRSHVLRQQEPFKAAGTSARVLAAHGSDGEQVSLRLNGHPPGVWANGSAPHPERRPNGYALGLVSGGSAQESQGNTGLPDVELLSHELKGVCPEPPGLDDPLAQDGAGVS
From the text: as §1, §2, §3

Male Wistar rats = assay: Test 3 Impaired-memory ameliorating action (scopolamine-impaired retention trial); assay type: in vivo; conditions: scopolamine 1 mg/kg i.p. + test compound 1 mg/kg i.p. immediately after acquisition trial, scopolamine + control 80.2 ± 34.9, intact 300 ± 0
Description: Test 3 Impaired-Memory Ameliorating Action
Male Wistar rats were serially subjected to an acclimation trial, an acquisition trial 1 hour after the acclimation trial, and a retention trial 24 hours after the acquisition trial. Scopolamine 1 mg/kg was intraperitoneally administered 30 minutes before the acquisition trial. The test compound was intraperitoneally administered immediately after the acquisition trial.

male SD rats = assay: Test 2 Anxiolytic action (social interaction test); assay type: in vivo; conditions: 0.32 mg/kg oral 1 h before test, 15 min observation, control 51.3 ± 6.0
Description: Two male SD rats acclimated for 1 week and handled once were used in sets. One hour before beginning of the test, both rats in each set were orally dosed with the same amount of the test compound or the vehicle. Immediately thereafter, both rats were placed in a new environment where territories were to be established as yet and their behaviors were monitored and recorded over 15 minutes. After the test, the records were analyzed and evaluated in terms of the total duration of social interaction (social interaction time) (observation items: sniffing, following, grooming, kicking, boxing, biting, wrestling, crawling under or over the partner).

affinity for the adenosine A1-receptor relative to affinity for the adenosine A2a receptor ([1]; A1 affinity as a multiple of A2a affinity): 36 times | inhibition at 1 µM ([1]; at a concentration of 1.0×10^−6 M, [3H]-DPCPX 4 nM, read-out: inhibition rate for Adenosine A1-receptor): ≥ 80% | inhibition at 1 µM [2]: ≥ 80%
Compound: O=c1ccc(-c2c(-c3ccccc3)nn3ccccc23)nn1Cc1nccs1 [(A), 3-[2-(Thiazol-2-ylmethyl)-3-oxo-2,3-dihydropyridazin-6-yl]-2-phenylpyrazolo[1,5-a]pyridine]
Incidence of catalepsy (Mice): 20% | Reaction latency in retention trial (Male Wistar rats): 215.6 ± 35.0 s | Social interaction time (male SD rats): 90.5 ± 12.5 s
